pIC50: −log10 of the molar value.
Tests used:
[1] = target: Cytochrome P450 2C19 (Homo sapiens, UniProt P33261); test: Inhibition of CYP2C19 (unknown origin)
[2] = target: Potassium voltage-gated channel subfamily H member 2 (Homo sapiens, UniProt Q12809); test: Inhibition of human ERG expressed in CHO cells at holding potential of -80 mV by whole cell patch clamp assay
[3] = target: Cytochrome P450 2C9 (Homo sapiens, UniProt P11712); test: Inhibition of CYP2C9 (unknown origin)
Cytochrome P450 2C9, sequence (P11712 whole entry): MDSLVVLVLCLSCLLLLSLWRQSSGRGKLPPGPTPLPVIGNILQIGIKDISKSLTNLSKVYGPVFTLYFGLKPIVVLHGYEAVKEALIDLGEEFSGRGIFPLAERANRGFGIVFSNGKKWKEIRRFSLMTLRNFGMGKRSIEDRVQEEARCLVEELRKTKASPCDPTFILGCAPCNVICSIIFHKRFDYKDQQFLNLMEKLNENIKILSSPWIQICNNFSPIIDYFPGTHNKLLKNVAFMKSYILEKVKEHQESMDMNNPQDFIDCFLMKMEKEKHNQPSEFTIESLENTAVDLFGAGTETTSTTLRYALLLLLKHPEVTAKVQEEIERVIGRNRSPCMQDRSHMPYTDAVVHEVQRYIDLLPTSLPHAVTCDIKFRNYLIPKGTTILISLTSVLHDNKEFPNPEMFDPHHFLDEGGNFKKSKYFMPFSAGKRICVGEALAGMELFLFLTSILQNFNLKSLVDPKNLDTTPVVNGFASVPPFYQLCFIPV

Cytochrome P450 2C19, sequence (P33261 whole entry): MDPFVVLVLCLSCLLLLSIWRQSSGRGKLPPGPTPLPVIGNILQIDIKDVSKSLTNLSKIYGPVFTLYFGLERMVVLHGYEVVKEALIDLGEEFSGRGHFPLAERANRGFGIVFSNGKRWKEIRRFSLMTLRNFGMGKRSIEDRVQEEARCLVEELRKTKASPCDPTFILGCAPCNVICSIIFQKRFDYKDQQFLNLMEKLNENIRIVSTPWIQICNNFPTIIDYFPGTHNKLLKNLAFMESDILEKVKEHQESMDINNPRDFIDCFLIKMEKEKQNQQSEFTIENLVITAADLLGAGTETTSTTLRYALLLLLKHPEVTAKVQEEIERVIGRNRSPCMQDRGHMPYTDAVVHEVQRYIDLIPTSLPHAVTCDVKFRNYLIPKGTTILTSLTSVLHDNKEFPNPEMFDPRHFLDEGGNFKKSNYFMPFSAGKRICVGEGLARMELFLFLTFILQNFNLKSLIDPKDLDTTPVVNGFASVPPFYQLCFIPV
Potassium voltage-gated channel subfamily H member 2, sequence (Q12809 whole entry): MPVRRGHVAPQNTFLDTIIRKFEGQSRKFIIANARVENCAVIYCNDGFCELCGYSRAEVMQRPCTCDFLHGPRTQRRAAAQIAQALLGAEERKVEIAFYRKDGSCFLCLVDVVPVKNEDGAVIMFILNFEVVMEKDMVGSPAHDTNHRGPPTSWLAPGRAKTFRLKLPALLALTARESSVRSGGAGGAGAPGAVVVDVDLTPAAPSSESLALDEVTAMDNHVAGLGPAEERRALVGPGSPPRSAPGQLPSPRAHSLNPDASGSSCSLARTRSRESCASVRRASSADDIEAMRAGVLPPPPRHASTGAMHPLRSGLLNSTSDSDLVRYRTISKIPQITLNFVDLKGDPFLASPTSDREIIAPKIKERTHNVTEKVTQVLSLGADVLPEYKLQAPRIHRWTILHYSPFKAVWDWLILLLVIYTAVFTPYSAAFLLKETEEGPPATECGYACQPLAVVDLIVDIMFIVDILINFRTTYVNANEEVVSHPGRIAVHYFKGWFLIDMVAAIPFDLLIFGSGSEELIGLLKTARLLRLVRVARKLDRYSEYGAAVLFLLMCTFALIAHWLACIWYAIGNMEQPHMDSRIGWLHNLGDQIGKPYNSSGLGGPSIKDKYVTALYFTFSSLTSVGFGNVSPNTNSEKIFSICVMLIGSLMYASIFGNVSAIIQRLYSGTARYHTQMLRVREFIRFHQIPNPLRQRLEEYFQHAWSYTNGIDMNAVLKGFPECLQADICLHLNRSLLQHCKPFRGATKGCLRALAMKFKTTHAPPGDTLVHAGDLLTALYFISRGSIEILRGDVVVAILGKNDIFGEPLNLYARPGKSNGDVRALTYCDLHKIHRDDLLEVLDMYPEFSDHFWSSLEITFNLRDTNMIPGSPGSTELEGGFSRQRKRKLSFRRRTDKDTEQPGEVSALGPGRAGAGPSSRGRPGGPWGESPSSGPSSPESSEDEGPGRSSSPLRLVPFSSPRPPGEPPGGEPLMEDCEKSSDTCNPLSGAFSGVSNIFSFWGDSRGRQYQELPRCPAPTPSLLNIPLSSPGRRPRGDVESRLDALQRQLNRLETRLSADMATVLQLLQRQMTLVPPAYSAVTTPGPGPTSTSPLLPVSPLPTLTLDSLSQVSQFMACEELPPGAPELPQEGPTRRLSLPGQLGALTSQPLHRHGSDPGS

SMILES	pIC50 [1]	pIC50 [2]	pIC50 [3]
c1ccc([C@]2(CCNCc3scc4c3CCC4)CCO[C@]3(CCOC3)C2)nc1 [US11124523, Example (+)-2]	< 4.30	< 4.40	< 4.30
Fc1ccc([C@]2(CCNCc3cccc(Cl)c3)CCO[C@]3(CCOC3)C2)nc1 [US11124523, Example (+)-16]	–	–	< 4.30

— BindingDB's records for doi:10.1016/j.ejmech.2021.113986 (Yantai University, 2022)
